From US6737383B1, “Herbicidal oxadiazolidines” (priority 1999, dated 2004)

How the values were obtained:
soybean = test: Test B pre/postemergence soybean; format: in vivo, Glycine max
In short: (§1)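 Herbicidal effect was estimated by eye on a ten-point control scale after plants spent twelve to sixteen days in a greenhouse following soil or foliar treatment. Foliar sprays targeted plants at one to four leaves; all doses were formulated in a non-phytotoxic solvent with surfactant.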

pigweed = test: Test B pre/postemergence pigweed; format: in vivo, Amaranthus retroflexus
In short: as §1

surinam grass = test: Test B pre/postemergence surinam grass; format: in vivo, Brachiaria decumbens
In short: as §1

bedstraw = test: Test B pre/postemergence bedstraw; format: in vivo, Galium aparine
In short: as §1

wild oat = test: Test B pre/postemergence wild oat; format: in vivo, Avena fatua
In short: as §1

corn = test: Test B pre/postemergence corn; format: in vivo, Zea mays
In short: as §1

smallflower flatsedge = test: Test B flood test smallflower flatsedge; format: in vivo, Cyperus difformis
In short: (§2)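 Read-out is a visual response score from 0 (no effect) to 10 (complete control), assigned by comparison with untreated controls. Treatment was applied at the 2-leaf stage, and plants stayed in the greenhouse for twelve to sixteen days before scoring.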

crabgrass = test: Test B pre/postemergence crabgrass; format: in vivo, Digitaria sanguinalis
In short: as §1

duck salad = test: Test B flood test duck salad; format: in vivo, Heteranthera limosa
In short: as §2

purple nutsedge = test: Test B pre/postemergence purple nutsedge; format: in vivo, Cyperus rotundus
In short: as §1

velvetleaf = test: Test B pre/postemergence velvetleaf; format: in vivo, Abutilon theophrasti
In short: as §1

blackgrass = test: Test B pre/postemergence blackgrass; format: in vivo, Alopecurus myosuroides
In short: as §1

rice = test: Test B flood test rice; format: in vivo, Oryza sativa
In short: as §2

giant foxtail = test: Test B pre/postemergence giant foxtail; format: in vivo, Setaria faberii
In short: as §1

wheat = test: Test B pre/postemergence wheat; format: in vivo, Triticum aestivum
In short: as §1

morningglory = test: Test B pre/postemergence morningglory; format: in vivo, Ipomoea hederacea
In short: as §1

[1] = Preemergence, Rate 62 g/ha, scale of 0 to 10 where 0 is no effect and 10 is complete control
[2] = Preemergence, Rate 250 g/ha, scale of 0 to 10 where 0 is no effect and 10 is complete control
[3] = Preemergence, Rate 500 g/ha, scale of 0 to 10 where 0 is no effect and 10 is complete control
[4] = Rate 62 g/ha, Postemergence, scale 0 to 10 (0 no effect, 10 complete control)
[5] = Rate 125 g/ha, Postemergence, scale of 0 to 10 where 0 is no effect and 10 is complete control
[6] = Rate 250 g/ha, Postemergence, scale of 0 to 10 where 0 is no effect and 10 is complete control
[7] = Rate 500 g/ha, Postemergence, scale 0 to 10, 0 no effect, 10 complete control
[8] = Rate 62 g/ha, headed Pre-emergence (flood test species), scale 0 to 10 (0 no effect, 10 complete control)
[9] = Rate 125 g/ha, Pre-emergence, flood test species, scale 0 to 10 where 0 is no effect and 10 is complete control
[10] = Rate 250 g/ha, Pre-emergence, flood-test species, scale 0 to 10, 0 is no effect, 10 is complete control
[11] = Rate 500 g/ha, Pre-emergence, flood test species, scale 0 to 10 (0 no effect, 10 complete control)

In the case of `CC(C)n1c(=O)on(C(=O)N(c2ccc(Cl)cc2Cl)C2CCC2)c1=O` [Compound 319], the “Soybean plant response rating” value (soybean; [1]) is reported as 0, the “Soybean plant response rating (0 to 10 scale)” value (soybean; Preemergence, Rate 125 g/ha) is reported as 0 and the “Soybean plant response rating” value (soybean; [2]) is reported as 0. The “Soybean plant response rating” value (soybean; [3]) was 0, the “Soybean plant response rating” value (soybean; [4]) was 0 and the “Soybean plant response rating” value (soybean; [5]) was 1. The “Plant response rating, Soybean” value (soybean; [6]) was 1, the “Redroot pigweed plant response rating” value (pigweed; [1]) was 0 and the “Redroot pigweed plant response rating (0 to 10 scale)” value (pigweed; Preemergence, Rate 125 g/ha) was 0. For the same compound, the “Redroot pigweed plant response rating” value (pigweed; [2]) was 0, the “Redroot pigweed plant response rating” value (pigweed; [3]) was 0 and the “Redroot pigweed plant response rating” value (pigweed; [4]) was 0. For the same compound, the “Redroot pigweed plant response rating” value (pigweed; [5]) was 0, the “Plant response rating, Redroot pigweed” value (pigweed; [6]) was 0 and the “B. signalgrass plant response rating” value (surinam grass; [1]) was 0. For the same compound, the “B. signalgrass plant response rating (0 to 10 scale, 0 is no effect, 10 is complete control)” value (surinam grass; Preemergence, Rate 125 g/ha) was 0, the “B. signalgrass plant response rating” value (surinam grass; [2]) was 2 and the “B. signalgrass plant response rating” value (surinam grass; [3]) was 3. For the same compound, the “B. signalgrass plant response rating” value (surinam grass; [4]) was 0, the “B. signalgrass plant response rating” value (surinam grass; [5]) was 0 and the “Plant response rating, B. signalgrass” value (surinam grass; [6]) was 0. For the same compound, the “B. signalgrass plant response rating” value (surinam grass; [7]) was 0, the “Bedstraw plant response rating” value (bedstraw; [1]) was 0 and the “Bedstraw plant response rating (0 to 10 scale)” value (bedstraw; Preemergence, Rate 125 g/ha) was 0. The “Bedstraw plant response rating” value (bedstraw; [2]) was 0, the “Bedstraw plant response rating” value (bedstraw; [3]) was 7 and the “Bedstraw plant response rating” value (bedstraw; [4]) was 0. The “Bedstraw plant response rating” value (bedstraw; [5]) was 0, the “Wild oats plant response rating” value (wild oat; [1]) was 0 and the “Wild oats plant response rating (0 to 10 scale)” value (wild oat; Preemergence, Rate 125 g/ha) was 0. For the same compound, the “Wild oats plant response rating” value (wild oat; [2]) was 0, the “Wild oats plant response rating” value (wild oat; [3]) was 0 and the “Wild oats plant response rating” value (wild oat; [4]) was 0. For the same compound, the “Wild oats plant response rating” value (wild oat; [5]) was 0, the “Plant response rating, Wild oats” value (wild oat; [6]) was 0 and the “Corn plant response rating” value (corn; [1]) was 0. For the same compound, the “Corn plant response rating (0 to 10 scale)” value (corn; Preemergence, Rate 125 g/ha) was 0, the “Corn plant response rating” value (corn; [2]) was 0 and the “Corn plant response rating” value (corn; [3]) was 0. The “Corn plant response rating” value (corn; [4]) was 0, the “Corn plant response rating” value (corn; [5]) was 0 and the “Plant response rating, Corn” value (corn; [6]) was 0. For the same compound, the “Corn plant response rating” value (corn; [7]) was 0, the “S. Flatsedge plant response rating” value (smallflower flatsedge; [8]) was 0 and the “S. Flatsedge plant response rating” value (smallflower flatsedge; [9]) was 0. The “S. Flatsedge plant response rating” value (smallflower flatsedge; [10]) was 0, the “S. Flatsedge plant response rating” value (smallflower flatsedge; [11]) was 0 and the “Crabgrass plant response rating” value (crabgrass; [1]) was 0. For the same compound, the “Crabgrass plant response rating (0 to 10 scale)” value (crabgrass; Preemergence, Rate 125 g/ha) was 0, the “Crabgrass plant response rating” value (crabgrass; [2]) was 2 and the “Crabgrass plant response rating” value (crabgrass; [3]) was 3. The “Crabgrass plant response rating” value (crabgrass; [4]) was 0, the “Crabgrass plant response rating” value (crabgrass; [5]) was 0 and the “Plant response rating, Crabgrass” value (crabgrass; [6]) was 0. For the same compound, the “Ducksalad plant response rating” value (duck salad; [8]) was 0, the “Ducksalad plant response rating” value (duck salad; [9]) was 0 and the “Ducksalad plant response rating” value (duck salad; [10]) was 0. The “Ducksalad plant response rating” value (duck salad; [11]) was 0, the “Nutsedge plant response rating” value (purple nutsedge; [1]) was 0 and the “Nutsedge plant response rating (0 to 10 scale)” value (purple nutsedge; Preemergence, Rate 125 g/ha) was 0. For the same compound, the “Nutsedge plant response rating” value (purple nutsedge; [2]) was 0, the “Nutsedge plant response rating” value (purple nutsedge; [3]) was 0 and the “Nutsedge plant response rating” value (purple nutsedge; [4]) was 0. For the same compound, the “Nutsedge plant response rating” value (purple nutsedge; [5]) was 0, the “Plant response rating, Nutsedge” value (purple nutsedge; [6]) was 0 and the “Velvetleaf plant response rating” value (velvetleaf; [1]) was 0. The “Velvetleaf plant response rating (0 to 10 scale)” value (velvetleaf; Preemergence, Rate 125 g/ha) was 0, the “Velvetleaf plant response rating” value (velvetleaf; [2]) was 0 and the “Velvetleaf plant response rating” value (velvetleaf; [3]) was 0. For the same compound, the “Velvetleaf plant response rating” value (velvetleaf; [4]) was 0, the “Velvetleaf plant response rating” value (velvetleaf; [5]) was 0 and the “Plant response rating, Velvetleaf” value (velvetleaf; [6]) was 0. For the same compound, the “Blackgrass plant response rating” value (blackgrass; [1]) was 0, the “Blackgrass plant response rating (0 to 10 scale)” value (blackgrass; Preemergence, Rate 125 g/ha) was 0 and the “Blackgrass plant response rating” value (blackgrass; [2]) was 2. For the same compound, the “Blackgrass plant response rating” value (blackgrass; [3]) was 4, the “Blackgrass plant response rating” value (blackgrass; [4]) was 0 and the “Blackgrass plant response rating” value (blackgrass; [5]) was 0. The “Plant response rating, Blackgrass” value (blackgrass; [6]) was 0, the “Blackgrass plant response rating” value (blackgrass; [7]) was 3 and the “Rice plant response rating” value (rice; [8]) was 0. For the same compound, the “Rice plant response rating” value (rice; [9]) was 0, the “Rice plant response rating” value (rice; [10]) was 0 and the “Rice plant response rating” value (rice; [11]) was 0. The “Giant foxtail plant response rating” value (giant foxtail; [1]) was 6, the “Giant foxtail plant response rating (0 to 10 scale)” value (giant foxtail; Preemergence, Rate 125 g/ha) was 7 and the “Giant foxtail plant response rating” value (giant foxtail; [2]) was 9. The “Giant foxtail plant response rating” value (giant foxtail; [3]) was 9, the “Giant foxtail plant response rating” value (giant foxtail; [4]) was 0 and the “Giant foxtail plant response rating” value (giant foxtail; [5]) was 0. For the same compound, the “Plant response rating, Giant foxtail” value (giant foxtail; [6]) was 0, the “Wheat plant response rating” value (wheat; [1]) was 0 and the “Wheat plant response rating (0 to 10 scale)” value (wheat; Preemergence, Rate 125 g/ha) was 0. The “Wheat plant response rating” value (wheat; [2]) was 0, the “Wheat plant response rating” value (wheat; [3]) was 0 and the “Wheat plant response rating” value (wheat; [4]) was 0. For the same compound, the “Wheat plant response rating” value (wheat; [5]) was 0, the “Plant response rating, Wheat” value (wheat; [6]) was 0 and the “Morningglory plant response rating” value (morningglory; [1]) was 0. The “Morningglory plant response rating (0 to 10 scale)” value (morningglory; Preemergence, Rate 125 g/ha) was 0, the “Morningglory plant response rating” value (morningglory; [2]) was 0 and the “Morningglory plant response rating” value (morningglory; [3]) was 0. For the same compound, the “Morningglory plant response rating” value (morningglory; [4]) was 2, the “Morningglory plant response rating” value (morningglory; [5]) was 2 and the “Plant response rating, Morningglory” value (morningglory; [6]) was 4.
